Assay results taken from US11363816B2, “4-amino-6-(heterocyclic)picolinates and 6-amino-2-(heterocyclic)pyramidine-4-carboxylates and their use as herbicides” (Dow AgroSciences LLC, priority 2017, dated 2022).

Legend:
Type in all cases: in vivo
[1] = test system: ANTAR=Anthemis arvensis (field chamomile); experiment: Postemergent herbicidal activity in the greenhouse; conditions: 21-28 DAAA
Experimental: (§1) Seeds of the desired test plant species were planted in Sun Gro MetroMix® 306 planting mixture, which typically has a pH of 6.0 to 6.8 and an organic matter content of about 30 percent, in plastic pots with a surface area of 103.2 square centimeters (cm^2). When required to ensure good germination and healthy plants, a fungicide treatment and/or other chemical or physical treatment was applied. The plants were grown for 7-36 days (d) in a greenhouse with an approximate 14 hour (h) photoperiod which was maintained at about 18° C. during the day and 17° C. during the night. Nutrients and water were added on a regular basis and supplemental lighting was provided with overhead metal halide 1000-Watt lamps as necessary. The plants were employed for testing when they reached the second or third true leaf stage.
(§2) An aliquot of formulated Compound 5 (100 grams acid equivalent per liter (g ae/L); emusifiable concentrate (EC)), Compound 6 (100 g ae/L; EC) or Compound 7 (100 g ae/L; EC) was placed in a 25 mL glass vial and diluted in a volume of 1.25% (volume per volume (v/v)) aqueous Actirob B esterified rapeseed oil to obtain a stock solution. The concentrated stock solutions were diluted with an aqueous mixture of 1.25% v/v of aqueous Actirob B esterified rapeseed oil to provide the appropriate application rates. Compound requirements are based upon a 12 mL application volume at a rate of 187 liters per hectare (L/ha). Formulated compounds were applied to the plant material with an overhead Mandel track sprayer equipped with 8002E nozzles calibrated to deliver 187 L/ha over an application area of 0.503 square meters (m^2) at a spray height of 18 inches ([…]) above average plant canopy. Control plants were sprayed in the same manner with the solvent blank.
(§3) The treated plants and control plants were placed in a greenhouse as described above and watered by subirrigation to prevent washoff of the test compounds. After 20-22 d, the condition of the test plants as compared with that of the control plants was determined visually and scored on a scale of 0 to 100 percent where 0 corresponds to no injury and 100 corresponds to complete kill. […]
(§4) The values reported are means.

[2] = test system: MATIN=Matricaria inodora (scentless mayweed); experiment: Postemergent herbicidal activity in the greenhouse; conditions: 21-28 DAAA
Experimental: as §1, §2, §3, §4

[3] = test system: CHEAL=Chenopodium album L. (common lambsquarters); experiment: Postemergence field trial, Nisku, Alberta, Canada
Experimental: (§5) Field trials were established in Canada (in Ellerslie, Alberta; Nisku, Alberta and Hanley, Saskatchewan) to evaluate the efficacy of Compound 5, Compound 6, and Compound 7. Trials were designed as randomized complete blocks with four replicates. Trials were established in spring wheat with natural weed population with plot sizes of 2-3 meters (m) by 8-10 m (width×length). The crops were grown using normal cultural practices for fertilization, seeding, and maintenance to ensure good growth of the crop.
(§6) All herbicide treatments were applied post-emergence with applications made to the crops at BBCH (Phenological development stages of a plant) 14 to 22 growth stage. Herbicides were applied with backpack or bicycle sprayers using carbon dioxide (CO2) as a propellant. The sprayers utilized flat fan air-induction spray nozzles calibrated to deliver a uniform spray pattern that provided thorough coverage of the foliage using a 100 L/ha spray volume. All treatments were applied with methylated seed oil (MSO) at 1.25% v/v. Phytotoxicity to the weeds was assessed visually at several intervals after application as percent overall control, compared to an untreated control plot. In general, four replicates were assessed for each treatment. All treatment results are an average of four replicates.
(§7) Compound 5, Compound 6 and Compound 7 were applied as emulsifiable concentrate (EC) formulations at 100 g ae/L EC, respectively.

[4] = test system: STEME=Stellaria media (L.) Vill. (common chickweed); experiment: Postemergence field trial, Nisku, Alberta, Canada
Experimental: as §5, §6, §7

[5] = test system: CHEAL=Chenopodium album L. (common lambsquarters); experiment: Postemergence field trial, Ellerslie, Alberta, Canada
Experimental: as §5, §6, §7

[6] = test system: POLCO=Polygonum convolvulus L. (wild buckwheat); experiment: as above
Experimental: as §5, §6, §7

[7] = test system: STEME=Stellaria media (L.) Vill. (common chickweed); experiment: as above
Experimental: as §5, §6, §7

[8] = test system: PAPRH=Papaver rhoeas L. (common poppy); experiment: Postemergence field trial, Granon, Spain (Table 7)
Experimental: (§8) Field trials were established in Spain (Banares and Granon) and Germany (Bielefeld) to evaluate the efficacy of Compound 5, Compound 6, and Compound 7. Trials were designed as randomized complete blocks with three to four replicates. Trials were established in winter wheat with natural weed population with plot sizes of 2-2.5 meters (m) by 6-8 m (width×length). The crops were grown using normal cultural practices for fertilization, seeding, and maintenance to ensure good growth of the crop. All herbicide treatments were applied post-emergence with applications made to the crops at the BBCH 21 to 23 growth stage. Herbicides were applied with backpack or bicycle sprayers using air as a propellant. The sprayers utilized flat fan air-induction spray nozzles calibrated to deliver a uniform spray pattern that provided thorough coverage of the foliage using a 200 L/ha spray volume. All treatments were applied with methylated seed oil (MSO) at 1.25% v/v. Phytotoxicity to the weeds was assessed visually at several intervals after application as percent overall control, compared to an untreated control plot. In general, three to four replicates were assessed for each treatment. All treatment results are an average of three or four replicates. Compound 5, Compound 6, and Compound 7 were applied as emulsifiable concentrate (EC) formulations at 100 g ae/L EC, respectively.

[9] = test system: SINAR=Sinapis arvensis L. (wild mustard); experiment: Postemergence field trial, Granon, Spain (Table 7)
Experimental: as §8

[10] = test system: CENCY=Centaurea cyanus (cornflower); experiment: Postemergence field trial, Bielefed, Germany
Experimental: as §8

[11] = test system: PAPRH=Papaver rhoeas L. (common poppy); experiment: Postemergence field trial, Bielefed, Germany
Experimental: as §8

Row | Compound | Percent (%) Visual Control ANTAR ([1]; 10 g ae/ha) | Percent (%) Visual Control ANTAR ([1]; 20 g ae/ha) | Percent (%) Visual Control MATIN ([2]; 10 g ae/ha) | Percent (%) Visual Control MATIN ([2]; 20 g ae/ha) | Percent (%) Visual Control CHEAL 51DAAA ([3]; 10 g ae/ha) | Percent (%) Visual Control CHEAL 51DAAA ([3]; 20 g ae/ha) | Percent (%) Visual Control CHEAL 51DAAA ([3]; 40 g ae/ha) | Percent (%) Visual Control STEME 28DAAA ([4]; 10 g ae/ha) | Percent (%) Visual Control STEME 51DAAA ([4]; 10 g ae/ha) | Percent (%) Visual Control STEME 28DAAA ([4]; 20 g ae/ha) | Percent (%) Visual Control STEME 51DAAA ([4]; 20 g ae/ha) | Percent (%) Visual Control STEME 28DAAA ([4]; 40 g ae/ha) | Percent (%) Visual Control STEME 51DAAA ([4]; 40 g ae/ha) | Percent (%) Visual Control CHEAL 51DAAA ([5]; 10 g ae/ha) | Percent (%) Visual Control CHEAL 51DAAA ([5]; 20 g ae/ha) | Percent (%) Visual Control POLCO 51DAAA ([6]; 10 g ae/ha) | Percent (%) Visual Control POLCO 51DAAA ([6]; 20 g ae/ha) | Percent (%) Visual Control STEME 51DAAA ([7]; 10 g ae/ha) | Percent (%) Visual Control STEME 51DAAA ([7]; 20 g ae/ha) | Percent (%) Visual Control PAPRH 68DAAA ([8]; 5 g ae/ha) | further results
1 | C#CCOC(=O)c1nc(-c2ccc3cc[nH]c3c2F)c(F)c(N)c1Cl [Compound 5, prop-2-yn-1-yl 4-amino-3-chloro-5-fluoro-6-(7-fluoro-1H-indol-6-yl)picolinate] | 100% | 83.3% | 100% | 100% | 98% | 96.8% | 97.3% | 88% | 88.3% | 96% | 92.5% | 99% | 93.8% | 98% | 98% | 76.3% | 91% | 66.3% | 83.3% | 58.3% | Percent (%) Visual Control PAPRH 68DAAA ([8]; 10 g ae/ha): 72.7%; Percent (%) Visual Control PAPRH 68DAAA ([8]; 20 g ae/ha): 79.3%; Percent (%) Visual Control SINAR 48DAAA ([9]; 5 g ae/ha): 85%; Percent (%) Visual Control SINAR 48DAAA ([9]; 10 g ae/ha): 94.8%; Percent (%) Visual Control SINAR 48DAAA ([9]; 20 g ae/ha): 95%; Percent (%) Visual Control CENCY 85DAAA ([10]; 5 g ae/ha): 65%; Percent (%) Visual Control CENCY 85DAAA ([10]; 10 g ae/ha): 87.5%; Percent (%) Visual Control CENCY 85DAAA ([10]; 20 g ae/ha): 95%; Percent (%) Visual Control PAPRH 85DAAA ([11]; 5 g ae/ha): 92.5%; Percent (%) Visual Control PAPRH 85DAAA ([11]; 10 g ae/ha): 97.3%; Percent (%) Visual Control PAPRH 85DAAA ([11]; 20 g ae/ha): 98.8%
2 | N#CCOC(=O)c1nc(-c2ccc3cc[nH]c3c2F)c(F)c(N)c1Cl [Compound 6, cyanomethyl 4-amino-3-chloro-5-fluoro-6-(7-fluoro-1H-indol-6-yl)picolinate] | 100% | 98.3% | 98.3% | 100% | 98% | 98% | 98% | 99% | 87.5% | 96% | 87.8% | 99% | 94.5% | 96.8% | 98% | 90.3% | 84.5% | 83.8% | 75.8% | 55% | Percent (%) Visual Control CHEAL 51DAAA ([5]; 40 g ae/ha): 98%; Percent (%) Visual Control POLCO 51DAAA ([6]; 40 g ae/ha): 87%; Percent (%) Visual Control STEME 51DAAA ([7]; 40 g ae/ha): 90%; Percent (%) Visual Control PAPRH 68DAAA ([8]; 10 g ae/ha): 69.3%; Percent (%) Visual Control PAPRH 68DAAA ([8]; 20 g ae/ha): 85.3%; Percent (%) Visual Control SINAR 48DAAA ([9]; 5 g ae/ha): 82.7%; Percent (%) Visual Control SINAR 48DAAA ([9]; 10 g ae/ha): 95%; Percent (%) Visual Control SINAR 48DAAA ([9]; 20 g ae/ha): 95.2%; Percent (%) Visual Control CENCY 85DAAA ([10]; 5 g ae/ha): 60%; Percent (%) Visual Control CENCY 85DAAA ([10]; 10 g ae/ha): 92.5%; Percent (%) Visual Control CENCY 85DAAA ([10]; 20 g ae/ha): 97%; Percent (%) Visual Control PAPRH 85DAAA ([11]; 5 g ae/ha): 94.5%; Percent (%) Visual Control PAPRH 85DAAA ([11]; 10 g ae/ha): 97.3%; Percent (%) Visual Control PAPRH 85DAAA ([11]; 20 g ae/ha): 99.8%
3 | Nc1c(F)c(-c2ccc3cc[nH]c3c2F)nc(C(=O)OCc2ccccc2)c1Cl [Compound 7, benzyl 4-amino-3-chloro-5-fluoro-6-(7-fluoro-1H-indol-6-yl)picolinate, reference compound] | 99.3% | 99.3% | 100% | 100% | 98% | 98% | 98% | 76.7% | 76.3% | 76.7% | 80% | 99% | 85.8% | 94.8% | 98% | 79% | 92.8% | 73.3% | 80.8% | 45% | Percent (%) Visual Control CHEAL 51DAAA ([5]; 40 g ae/ha): 98%; Percent (%) Visual Control POLCO 51DAAA ([6]; 40 g ae/ha): 96.8%; Percent (%) Visual Control STEME 51DAAA ([7]; 40 g ae/ha): 83.3%; Percent (%) Visual Control PAPRH 68DAAA ([8]; 10 g ae/ha): 60%; Percent (%) Visual Control PAPRH 68DAAA ([8]; 20 g ae/ha): 74.3%; Percent (%) Visual Control SINAR 48DAAA ([9]; 5 g ae/ha): 73.3%; Percent (%) Visual Control SINAR 48DAAA ([9]; 10 g ae/ha): 80.7%; Percent (%) Visual Control SINAR 48DAAA ([9]; 20 g ae/ha): 89.3%; Percent (%) Visual Control CENCY 85DAAA ([10]; 5 g ae/ha): 32.5%; Percent (%) Visual Control CENCY 85DAAA ([10]; 10 g ae/ha): 53.8%; Percent (%) Visual Control CENCY 85DAAA ([10]; 20 g ae/ha): 62.5%; Percent (%) Visual Control PAPRH 85DAAA ([11]; 5 g ae/ha): 66.3%; Percent (%) Visual Control PAPRH 85DAAA ([11]; 10 g ae/ha): 78.8%; Percent (%) Visual Control PAPRH 85DAAA ([11]; 20 g ae/ha): 80%
